Biological target: T1, human factor Xa (Homo sapiens, UniProt P00742)
T1 construct: 25 μL human factor Xa (32 nM in 0.03 M tris, 0.15 M NaCl, 1 mg/mL HSA); purchased Enzyme Research Laboratories (South Bend, Ind., USA)
Experiment: Enzyme inhibition assay: apparent association constant (Kass) for human factor Xa, chromogenic substrate hydrolysis
Format: biochemical
Details: human factor Xa 3.2 nM, BzIleGluGlyArgpNA substrate, approximately inverse of Ki
Procedure: Human factor Xa and human thrombin are purchased from Enzyme Research Laboratories (South Bend, Ind., USA). Other proteases are from other commercial sources. Chromogenic para-nitroanilide peptide protease substrates are purchased from Midwest Biotech (Fishers, Ind., USA).
The binding affinities for human factor Xa are were measured as apparent association constants (Kass) derived from protease inhibition kinetics as described previously.^a,b,c,d The apparent Kass values are obtained using automated (BioMek-1000) dilutions of inhibitors (Kass determinations are performed in triplicate at each of four-eight inhibitor concentrations) into 96-well plates and chromogenic substrate hydrolysis rates determined at 405 nm using a Thermomax plate reader from Molecular Devices (San Francisco). For factor Xa inhibition, the assay protocol is: 50 μL buffer (0.06 M tris, 0.3 M NaCl, pH 7.4); 25 μL inhibitor test solution (in MeOH); 25 μL human factor Xa (32 nM in 0.03 M tris, 0.15 M NaCl, 1 mg/mL HSA); finally, 150 μL BzIleGluGlyArgpNA (0.3 mM in water) added within 2 min to start hydrolysis. Final [factor Xa] is 3.2 nM. [Free Xa] and [bound Xa] are determined from linear standard curves on the same plate by use of SoftmaxPro software for each inhibitor concentration and apparent Kass calculated for each inhibitor concentration which produced hydrolysis inhibition between 20% and 80% of the control (3.2 nM factor Xa): apparent Kass [E:I]/[Ef][If]=[Eb]/[Ef][I^o−Ib]. The apparent Kass values so obtained are approximately the inverse of the Ki for the respective inhibitors [1/appKass=app Ki]. The variability of mean apparent Kass values determined at the single substrate concentration is +/−15%. The assay system Km was measured as 0.347+/−0.031 mM [n=4]; and Vmax was 13.11+/−0.76 μM/min.

T1 sequence (P00742 235-488 limits assumed): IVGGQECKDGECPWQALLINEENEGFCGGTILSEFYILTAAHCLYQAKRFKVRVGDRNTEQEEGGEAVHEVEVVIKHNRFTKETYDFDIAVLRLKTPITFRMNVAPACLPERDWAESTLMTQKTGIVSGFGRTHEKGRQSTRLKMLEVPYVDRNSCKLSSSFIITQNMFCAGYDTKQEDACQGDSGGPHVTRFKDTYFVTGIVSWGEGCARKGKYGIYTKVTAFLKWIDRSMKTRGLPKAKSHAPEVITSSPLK
T1 sequence (P00742 41-179 partner limits assumed): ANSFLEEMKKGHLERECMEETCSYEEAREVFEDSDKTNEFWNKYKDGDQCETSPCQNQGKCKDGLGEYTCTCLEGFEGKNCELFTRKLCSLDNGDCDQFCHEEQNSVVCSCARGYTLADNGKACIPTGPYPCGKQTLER

Kass	Compound
~8.9e+07 L/mol	CC(C)[C@@H](NC(=O)c1ccc2cc[nH]c2c1)C(=O)N1CCC(C2CCN(C)CC2)CC1.Cl [Example 9, 1-(Indole-6-carbonyl-D-valinyl)-4-(1-methylpiperidin-4-yl)piperidine Hydrochloride]
about 20 ×10^6 L/mole	COc1ccc(C(=O)N[C@@H](C(=O)N2CCC(C3CCN(C)CC3)CC2)C(C)C)cc1.Cl [Example 6, 1-(4-Methoxybenzoyl-D-valinyl)-4-(1-methylpiperidin-4-yl)-piperidine Hydrochloride]
~3.58e+08 L/mol	CC(C)[C@@H](NC(=O)c1cc2cc(Cl)ccc2[nH]1)C(=O)N1CCN(C2CCN(C)CC2)CC1.Cl [Example 18, 1-(5-Chloroindole-2-carbonyl-D-valinyl)-4-(1-methylpiperidin-4-yl)piperazine Hydrochloride]

Tested on: not given
Experiment: not given
Details: not given

Compound	melting point
C#CC[C@@H](NC(=O)c1ccc2cc[nH]c2c1)C(=O)N1CCN(C2CCN(C)CC2)CC1.Cl	170 to 180 °C (dec.)
C=CC[C@@H](NC(=O)c1cc2ccc(Cl)cc2s1)C(=O)N1CCN(C2CCN(C)CC2)CC1.Cl	130 to 135 °C (dec.)
C=CC[C@@H](NC(=O)c1cc2cc(Cl)ccc2[nH]1)C(=O)N1CCN(C2CCN(C)CC2)CC1.Cl	170 to 175 °C (dec.)

Other lines, results leading:

melting point	Compound
110 to 115 °C (dec.)	C=CC[C@@H](NC(=O)c1ccc2cc[nH]c2c1)C(=O)N1CCN(C2CCN(C)CC2)CC1.Cl
174 to 185 °C (dec.)	C#CC[C@@H](NC(=O)c1cc2cc(Cl)ccc2[nH]1)C(=O)N1CCN(C2CCN(C)CC2)CC1.Cl
115 to 135 °C (dec.)	C#CC[C@@H](NC(=O)c1cc2ccc(Cl)cc2s1)C(=O)N1CCN(C2CCN(C)CC2)CC1.Cl
